Test results: ChEMBL document CHEMBL1201862, “PubChem BioAssay data set” (2004)
Where a name gives a salt, the structure may show the parent alone.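 Following 48 hours of exposure in 96-well plates, responses at five concentrations were used to interpolate endpoints linearly. The concentration for 50% growth inhibition is given as GI50.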 Active and inactive are the calls of the source. Rule as the data show it: active = GI50 up to about 1.1 µM and inactive = higher.

Assays:
Assay in all cases: inhibition of tumour cell growth, NCI panel, 48 h
[1] = tested on: ACHN
[2] = tested on: EKVX
[3] = tested on: HCC 2998
[4] = tested on: HCT-116
[5] = tested on: HOP-62
[6] = tested on: K562
[7] = tested on: MDA-MB-435
[8] = tested on: MOLT-4
[9] = tested on: NCI-H522
[10] = tested on: NCI/ADR-RES
[11] = tested on: OVCAR-4
[12] = tested on: RXF 393
[13] = tested on: SF-295
[14] = tested on: SK-MEL-5
[15] = tested on: SK-OV-3
[16] = tested on: TK-10
[17] = tested on: UACC-257
[18] = tested on: A498
[19] = tested on: BT-549

Measured: GI50

CCN(CC)C(=O)c1cc([N+](=O)[O-])c(=O)n2c1[nH]c1ccccc12
inactive: [1] > 100 µM | [2] > 100 µM | [3] > 100 µM | [4] > 100 µM | [5] > 100 µM | [6] > 100 µM | [7] > 100 µM | [8] > 100 µM | [9] > 100 µM | [10] > 100 µM | [11] > 100 µM | [12] > 100 µM | [13] > 100 µM | [14] > 100 µM | [15] > 100 µM | [16] > 100 µM | [17] > 100 µM

Cc1[nH]n(-c2nc(-c3ccccc3)cc(=O)[nH]2)c(=O)c1CCO
inactive: [1] > 100 µM | [2] > 100 µM | [3] > 100 µM | [4] > 100 µM | [5] > 100 µM | [6] > 100 µM | [7] > 100 µM | [8] 63.5 µM | [10] 71.1 µM | [11] > 100 µM | [12] > 100 µM | [13] > 100 µM | [14] > 100 µM | [15] > 100 µM | [16] > 100 µM | [17] > 100 µM

CN(C)CCOC(=O)COc1ccc(Cl)cc1 [CENTROPHENOXINE HYDROCHLORIDE]
inactive: [18] 98.6 µM | [1] > 100 µM | [2] > 100 µM | [3] > 100 µM | [4] > 100 µM | [5] > 100 µM | [6] > 100 µM | [7] > 100 µM | [8] > 100 µM | [9] > 100 µM | [10] > 100 µM | [11] > 100 µM | [12] > 100 µM | [13] > 100 µM | [14] > 100 µM | [15] > 100 µM | [17] > 100 µM

Cc1cc(OCc2nn(CN3CCN(C)CC3)c(=S)n2/N=C/c2ccc(-c3ccc(Cl)cc3Cl)o2)ccc1Cl
inactive: [18] 36.3 µM | [1] > 100 µM | [2] > 100 µM | [3] 16.1 µM | [4] > 100 µM | [5] 39.3 µM | [6] 34.6 µM | [7] 29.5 µM | [8] 67.8 µM | [9] 24.5 µM | [10] 38 µM | [11] 27 µM | [12] 17.2 µM | [13] 84.1 µM | [14] 44.5 µM | [15] > 100 µM | [16] 75.2 µM | [17] 53.5 µM

CCOC(=O)[C@@H]1ON2O[C@@H](OC3CCCCC3c3ccccc3)C[C@H]3OC(=O)[C@@H]1C32 (some centres undefined)
inactive: [18] > 100 µM | [1] > 100 µM | [2] > 100 µM | [3] 66.7 µM | [4] > 100 µM | [5] > 100 µM | [6] > 100 µM | [7] 91.2 µM | [8] > 100 µM | [9] 87.1 µM | [10] > 100 µM | [12] > 100 µM | [13] > 100 µM | [14] > 100 µM | [15] > 100 µM | [16] > 100 µM | [17] > 100 µM

CC1C(=O)N(C)C2(CO)C(=O)O[C@H](C)C12O (some centres undefined)
inactive: [2] > 100 µM | [3] > 100 µM | [4] > 100 µM | [5] > 100 µM | [6] > 100 µM | [8] > 100 µM | [11] > 100 µM | [12] > 100 µM | [13] 28.1 µM | [14] > 100 µM | [15] > 100 µM | [16] > 100 µM

Cc1ccc(/C=N/n2c(=O)[nH]c3ccccc3c2=O)cc1
inactive: [18] > 100 µM | [1] > 100 µM | [19] > 100 µM | [2] > 100 µM | [4] > 100 µM | [5] > 100 µM | [6] > 100 µM | [7] > 100 µM | [8] > 100 µM | [13] > 100 µM | [14] > 100 µM | [15] > 100 µM | [16] > 100 µM | [17] > 100 µM

CC(=O)N(CN1C(=O)CCC1C(=O)O)c1ccccc1Cl (centres undefined)
inactive: [18] > 100 µM | [1] > 100 µM | [2] > 100 µM | [3] > 100 µM | [4] > 100 µM | [5] > 100 µM | [6] > 100 µM | [7] > 100 µM | [8] > 100 µM | [9] > 100 µM | [10] > 100 µM | [11] > 100 µM | [12] > 100 µM | [13] > 100 µM | [14] > 100 µM | [15] > 100 µM | [16] > 100 µM | [17] > 100 µM

OC(c1cc(C(O)(C(F)(F)F)C(F)(F)F)ncn1)(C(F)(F)F)C(F)(F)F
inactive: [18] > 10 µM | [1] > 10 µM | [2] > 10 µM | [3] > 10 µM | [4] > 10 µM | [5] > 10 µM | [6] > 10 µM | [7] > 10 µM | [8] > 10 µM | [9] > 10 µM | [10] > 10 µM | [11] > 10 µM | [12] > 10 µM | [13] > 10 µM | [14] > 10 µM | [15] > 10 µM | [16] > 10 µM | [17] > 10 µM

CCC1OC2(C)CC(C#N)(C#N)C1(C#N)C(=N)O2 (centres undefined)
inactive: [18] > 100 µM | [1] > 100 µM | [19] > 100 µM | [2] > 100 µM | [4] > 100 µM | [6] > 100 µM | [7] > 100 µM | [8] > 100 µM | [12] > 100 µM | [13] > 100 µM | [14] > 100 µM | [15] > 100 µM | [16] > 100 µM | [17] > 100 µM

Cc1[nH]c2ccccc2c1CC/C(=N\Nc1ccccc1)c1ccccc1
inactive: [18] > 100 µM | [1] > 100 µM | [2] > 100 µM | [3] > 100 µM | [4] > 100 µM | [5] > 100 µM | [6] > 100 µM | [8] > 100 µM | [11] > 100 µM | [12] > 100 µM | [13] 94.6 µM | [14] > 100 µM | [15] > 100 µM | [16] > 100 µM | [17] > 100 µM

O=C1c2ccccc2C(=O)N1CC1S(=O)(=O)OCCOS1(=O)=O
inactive: [18] > 100 µM | [1] > 100 µM | [2] > 100 µM | [3] > 100 µM | [4] > 100 µM | [5] > 100 µM | [6] > 100 µM | [7] > 100 µM | [8] > 100 µM | [9] > 100 µM | [10] > 100 µM | [11] > 100 µM | [12] > 100 µM | [13] > 100 µM | [14] > 100 µM | [15] > 100 µM | [16] > 100 µM | [17] > 100 µM
